Results: patent US9040903B2, “Precursor selection using an artificial intelligence algorithm increases proteomic sample coverage and reproducibility” (Wisconsin Alumni Research Foundation, priority 2011, dated 2015)

B1: bone morphogenetic protein 4 (protein, UniProt P12644 293-408, looked up)
Bone morphogenetic protein 4: SPKHHSQRARKKNKNCRRHSLYVDFSDVGWNDWIVAPPGYQAFYCHGDCPFPLADHLNSTNHAIVQTLVNSVNSSIPKACCVPTELSAISMLYLDEYDKVVLKNYQEMVVEGCGCR

Tests used:
[1] = test system: mouse skeletal muscle myotubes; assay: Immunoblot of mitochondrial proteins after iron chelation of myotubes; type: cell-based
[2] = test system: human embryonic stem cells (ESCs); assay: TMT 6-plex isobaric tag quantitation of human embryonic stem cells before and two days after BMP4 treatment (inSeq-triggered QuantMode scans); type: cell-based; settings: two days post treatment
Experimental: To assess this decision node, a sample comprising three biological replicates of human embryonic stem cells (ESCs) was analyzed pre- and two days-post bone morphogenetic protein 4 (BMP4) treatment (i.e., TMT 6-plex, three pre-treatment and three post BMP4 treatment cell populations). BMP4, a growth factor that induces context-dependent differentiation in pluripotent stem cells, is widely used to study differentiation to biologically relevant cell lineages such as mesoderm and endoderm. […] Here the ratio of change between control and treatment cell lines measured in one QM scan is large (5.86) but not significant (P=0.067, Student's t-test with Storey correction) (34). Note significance testing was accomplished by assessing variation within the three biological replicates of both treatment and control cell lines. The measured ratio remains relatively unchanged (5.22 and 5.43) as reporter tag signal from additional quantitation scans are added; however, the corresponding P-values decrease to 0.014 and 0.012 when two or three quantitation scans are summed. […] Ideally this log2 ratio would be zero, indicating perfect biological replication; however, when only one quantitation scan is employed this ratio severely deviates from zero with decreasing tag intensity. To improve overall data quality and to omit potentially erroneous measurements arbitrary reporter signal cutoffs (dashed vertical line in FIG. 16B) can be employed. These cutoffs eliminate many low-abundance peptides which often represent proteins of interest. Summation of additional quantitation scans increases the average reporter tag intensity, raising nearly all of the protein measurements above the intensity cutoff value (74, 9, and 4 proteins omitted using one, two, and three quantification scans, respectively).
Human embryonic stem cells (line H1) were maintained in feeder independent media as previously described (Chen et al). […]
TMT quantification was performed using TagQuant within COMPASS. […]

Row | Molecule | cell death ([1]; mouse myotube C2C12 cells, 100 μM) | decrease in mitochondrial proteins ([1]; mouse myotube C2C12 cells, 100 μM, 24 hrs) | levels of the mitochondrial voltage dependent anion channel (VDAC) ([1]; mouse skeletal muscle myotubes, FIG. 12) | loss of proteins involved in mitochondrial oxidative phosphorylation (OXPHOS) ([1]; mouse skeletal muscle myotubes, dose-dependent and time-dependent, FIG. 12) | ratio of change between control and treatment cell lines, peptide FCADHPFLFFIR (SEQ ID NO:3) from protein SERPINB8 ([2]; one QM scan, P=0.067) | ratio of change between control and treatment cell lines, peptide FCADHPFLFFIR (SEQ ID NO:3) from protein SERPINB8 ([2]; three quantitation scans summed, P=0.012) | ratio of change between control and treatment cell lines, peptide FCADHPFLFFIR (SEQ ID NO:3) from protein SERPINB8 ([2]; two quantitation scans summed, P=0.014)
1 | CC(=O)N(O)CCCCCNC(=O)CCC(=O)N(O)CCCCCNC(=O)CCC(=O)N(O)CCCCCN [DFO, desferrioxamine] | without causing cell death | marked decrease in mitochondrial proteins | unchanging levels | induces loss of proteins involved in mitochondrial oxidative phosphorylation (OXPHOS) | – | – | –
2 | B1 | – | – | – | – | 5.86 | 5.43 | 5.22
